Values after ≈ are worked out from the molar mass of the structure shown. Like-named read-outs stand apart in the source and are kept apart here.
Assays:
[1] = system: E. coli; test: microbe, parasite or virus in culture; assay type: cell-based, Escherichia coli; conditions: Escherichia coli, read-out: In vitro MIC90
[2] = system: A. baumannii; test: microbe, parasite or virus in culture; assay type: cell-based, Acinetobacter baumannii; conditions: Acinetobacter baumannii, ATCC1960, read-out: In vitro MIC90
[3] = system: P. aeruginosa; test: microbe, parasite or virus in culture; assay type: cell-based, Pseudomonas aeruginosa; conditions: Pseudomonas aeruginosa, read-out: In vitro MIC90
[4] = system: S. lividans; test: microbe, parasite or virus in culture; assay type: cell-based, Streptomyces lividans; conditions: Streptomyces lividans, read-out: In vitro MIC90
[5] = system: R. jostii; test: microbe, parasite or virus in culture; assay type: cell-based, Rhodococcus jostii; conditions: Rhodococcus jostii, read-out: In vitro MIC90
[6] = system: K. rhizophila; test: microbe, parasite or virus in culture; assay type: cell-based, Kocuria rhizophila; conditions: Kocuria rhizophila, read-out: In vitro MIC90
[7] = system: S. aureus; test: microbe, parasite or virus in culture; assay type: cell-based, Staphylococcus aureus; conditions: Staphylococcus aureus, ATCC25923, read-out: In vitro MIC90
[8] = system: M. smegmatis; test: microbe, parasite or virus in culture; assay type: cell-based, Mycobacterium smegmatis; conditions: Mycolicibacterium smegmatis, MC^2155, read-out: In vitro MIC90
[9] = system: M. bovis BCG; test: microbe, parasite or virus in culture; assay type: cell-based, Mycobacterium bovis; conditions: Mycobacterium tuberculosis variant bovis BCG, BCG, read-out: In vitro MIC90
[10] = system: M. tuberculosis; test: microbe, parasite or virus in culture; assay type: cell-based, Mycobacterium tuberculosis; conditions: for MIC90: Mycobacterium tuberculosis
[11] = system: M. aurum; test: MIC against mycobacterial species; assay type: cell-based; conditions: Mycolicibacterium aurum
[12] = system: M. avium; test: MIC against mycobacterial species; assay type: cell-based, Mycobacterium avium; conditions: Mycobacterium avium
[13] = system: M. chelonae; test: MIC against mycobacterial species; assay type: cell-based; conditions: Mycobacteroides chelonae
[14] = system: M. gordonae; test: MIC against mycobacterial species; assay type: cell-based; conditions: Mycobacterium gordonae
[15] = system: M. intracellulare; test: MIC against mycobacterial species; assay type: cell-based; conditions: Mycobacterium intracellulare
[16] = system: M. phlei; test: MIC against mycobacterial species; assay type: cell-based; conditions: Mycolicibacterium phlei
[17] = system: M. tuberculosis H37Rv and mc25857 (an MDR isolate); assay type: cell-based, Mycobacterium tuberculosis
[18] = system: representative Gram-positive and Gram-negative bacteria; assay type: cell-based
[19] = 12 mg/kg oral, cited from earlier work
[20] = cited from earlier work
[21] = Rats, 10 mg/kg oral; cited from earlier work
[22] = Cats, cited from earlier work
[23] = cited from earlier work; remark: listed apart in the source
[24] = rats; cited from earlier work
[25] = cited from earlier work; remark: listed apart in the source
[26] = cats; cited from earlier work

Q: Which MIC90 [1] does the source give for CO[C@H]1C[C@H](O[C@@H]2/C(C)=C/C[C@@H]3C[C@@H](C[C@]4(CC[C@H](C)[C@@H](C5CCCCC5)O4)O3)OC(=O)[C@@H]3C=C(C)/C(=N/O)[C@H]4OC/C(=C\C=C\[C@@H]2C)[C@]43O)O[C@@H](C)[C@@H]1O [Selamectin] here?
A: > 256 mg/L

Q: And the MIC90 [2]?
A: > 256 mg/L

Q: And the MIC90 [3]?
A: > 256 mg/L

Q: What about the MIC90 [4] of the same molecule?
A: > 256 mg/L

Q: What about the MIC90 [5] of the same molecule?
A: > 256 mg/L

Q: And the MIC90 [6]?
A: > 256 mg/L

Q: What about the MIC90 [7] of the same molecule?
A: > 256 mg/L

Q: What about the MIC90 [8] of the same molecule?
A: 4 mg/L (≈ 5.19 µM)

Q: What about the MIC90 [9] of the same molecule?
A: 4 mg/L (≈ 5.19 µM)

Q: What about the “activity in dose response curves compared to ivermectin and doramectin” value ([10]; M. tuberculosis H37Rv and an MDR clinical isolate (FIG. 10)) of the same molecule?
A: increased activity

Q: And the “activity in dose response curves” value ([10]; MDR clinical isolates BC-MDR2, BC-MDR3, BC-MDR4 and BC-MDR5 (FIG. 11))?
A: consistently more active than ivermectin

Q: What about the MIC90 ([10]; ERDMAN, read-out: In vitro MIC90, strain Erdman, WT) of the same molecule?
A: 2 mg/L (≈ 2.6 µM)

Q: What about the MIC90 ([10]; read-out: In vitro MIC90, strain 1254, WT) of the same molecule?
A: 2 to 4 mg/L (≈ 2.6 to 5.19 µM)

Q: And the MIC90 ([10]; read-out: In vitro MIC90, strain BC-DS1 (drug-susceptible))?
A: 2 mg/L (≈ 2.6 µM)

Q: What about the MIC90 ([10]; read-out: In vitro MIC90, strain BC-DS3 (drug-susceptible)) of the same molecule?
A: 1 to 2 mg/L (≈ 1.3 to 2.6 µM)

Q: What about the MIC90 ([10]; read-out: In vitro MIC90, strain BC-DS4 (drug-susceptible)) of the same molecule?
A: 1 to 2 mg/L (≈ 1.3 to 2.6 µM)

Q: What about the MIC90 ([10]; read-out: In vitro MIC90, strain BC-DS5 (drug-susceptible)) of the same molecule?
A: 2 to 4 mg/L (≈ 2.6 to 5.19 µM)

Q: And the MIC90 ([10]; read-out: In vitro MIC90, strain CDC 1551, WT)?
A: 1 mg/L (≈ 1.3 µM)

Q: What about the “sensitivity of the ivermectin-less-sensitive strains” value ([10]; strains CI15072, CI12081, BC-MDR2, BC-DS4 and BC-DS5) of the same molecule?
A: unaffected

Q: What about the MIC [11] of the same molecule?
A: 1 mg/L (≈ 1.3 µM)

Q: What about the MIC ([12]; ATCC25291, M. avium ATCC 25291) of the same molecule?
A: 16 mg/L (≈ 20.8 µM)

Q: And the MIC ([12]; M. avium 702)?
A: 64 mg/L (≈ 83.1 µM)

Q: And the MIC ([12]; M. avium 715)?
A: 128 mg/L (≈ 166 µM)

Q: And the MIC [13]?
A: 2 mg/L (≈ 2.6 µM)

Q: And the MIC [14]?
A: < 0.25 mg/L

Q: And the MIC ([15]; ATCC35761, M. intracellulare 1403 ATCC35761)?
A: 1 mg/L (≈ 1.3 µM)

Q: And the MIC ([15]; M. intracellulare D673)?
A: 2 mg/L (≈ 2.6 µM)

Q: And the MIC ([15]; M. intracellulare FM)?
A: 2 mg/L (≈ 2.6 µM)

Q: And the MIC ([15]; M. intracellulare 1403 Trudeau)?
A: 1 mg/L (≈ 1.3 µM)

Q: What about the MIC [16] of the same molecule?
A: 4 mg/L (≈ 5.19 µM)

Q: And the bactericidal profile ([17]; 21-day kill curves, various concentrations, H37Rv)?
A: strongest bactericidal profile

Q: And the bactericidal or bacteriostatic ([17]; in vitro against M. tuberculosis, survival kinetics)?
A: Bactericidal

Q: And the Inhibitory effects [18]?
A: not observed

Q: What about the “safe dose extrapolated to a 70 kg adult” value (from 24 mg/kg in cats and dogs) of the same molecule?
A: 1,680 mg

Q: What about the “safe dose extrapolated to humans” value (from 40 mg/kg/day in dogs) of the same molecule?
A: 2,800 mg/day

Q: What about the Cmax ([19]; Mouse (lung)) of the same molecule?
A: 7.5 µg/mL

Q: What about the AUC ([19]; Mouse (plasma)) of the same molecule?
A: 62.2857 µg·h/mL

Q: What about the Cmax ([19]; Mouse (plasma)) of the same molecule?
A: 3.714 µg/mL

Q: And the AUC ([20]; Dogs female, 6 mg/kg (topical))?
A: 8.903 µg·h/mL

Q: And the Cmax ([20]; Dogs female, 6 mg/kg (topical))?
A: 0.02265 µg/mL

Q: What about the T½ ([20]; Dogs female, 6 mg/kg (topical)) of the same molecule?
A: 257.5 h

Q: What about the AUC ([20]; Dogs males, 6 mg/kg (topical)) of the same molecule?
A: 4.609 µg·h/mL

Q: And the Cmax ([20]; Dogs males, 6 mg/kg (topical))?
A: 0.01272 µg/mL

Q: And the T½ ([20]; Dogs males, 6 mg/kg (topical))?
A: 291.4 h

Q: And the AUC ([20]; Dogs, 24 mg/kg (topical))?
A: 15.229 µg·h/mL

Q: And the Cmax ([20]; Dogs, 24 mg/kg (topical))?
A: 0.0865 µg/mL

Q: And the AUC ([20]; Dogs, 24 mg/kg oral)?
A: 227.901 µg·h/mL

Q: What about the Cmax ([20]; Dogs, 24 mg/kg oral) of the same molecule?
A: 7.63 µg/mL

Q: And the T½ ([20]; Dogs, 24 mg/kg oral)?
A: 45.7 h

Q: What about the Cmax [21] of the same molecule?
A: >1 µg/mL

Q: What about the T½ [21] of the same molecule?
A: 10.3 h

Q: What about the AUC ([22]; 24 mg/kg (topical)) of the same molecule?
A: 743.349 µg·h/mL

Q: What about the Cmax ([22]; 24 mg/kg (topical)) of the same molecule?
A: 5.513 µg/mL

Q: What about the AUC ([22]; 24 mg/kg oral) of the same molecule?
A: 1109.933 µg·h/mL

Q: And the Cmax ([22]; 24 mg/kg oral)?
A: 11.929 µg/mL

Q: What about the LD50 ([23]; mice) of the same molecule?
A: > 1,600 mg/kg body weight

Q: And the dose well tolerated ([23]; mouse, in vivo)?
A: up to 300 mg/kg body weight

Q: And the LD50 [24]?
A: > 1,600 mg/kg body weight

Q: And the “oral dose found safe” value ([25]; 3-month repeated dose toxicity study in dogs)?
A: 40 mg/kg/day

Q: And the “doses reported to be safe” value ([25]; dogs)?
A: up to 24 mg/kg

Q: What about the “toxicity in dogs lacking MDR1 P-glycoprotein / homozygous MDR1 mutation” value ([25]; ivermectin: extra-label use, selamectin, moxidectin: therapeutic doses) of the same molecule?
A: without any signs of toxicosis

Q: What about the “doses reported to be safe” value [26] of the same molecule?
A: up to 24 mg/kg

Source: patent publication US9308215B2, “Avermectins and milbemycins as anti-mycobacterial agents” (priority 2013, dated 2016)
